Measured values taken from paper PMC7055224, “High-Throughput Screening to Predict Chemical-Assay Interference” (Scientific Reports, 2020).
Read-outs that look alike come from different tables or passages of the source.

Columns and labels:
firefly-Luciferase = target: T1, firefly-Luciferase (Photinus pyralis, UniProt P08659); test: Luciferase (biochemical) qHTS assay, tox21-luc-biochem-p1, cell-free; conditions: for AC50: no unit printed in the picture (text uses µM)
T1 construct: purchased Sigma-Aldrich (St. Louis, MO)
From the text: (§1) Three assay platforms were applied to analyze luciferase and fluorescence interference patterns using the Tox21 chemical screening library. […] The Tox21 chemical library (8,305 unique substances) was screened in triplicate concentration response in all assays, with concurrent cytotoxicity measurements where applicable.
The substrate D-Luciferin and the enzyme firefly-Luciferase were purchased from Sigma-Aldrich (St. Louis, MO). The positive control compound (PTC-124) was purchased from Santa Cruz Biotechnology, Inc. (Dallas, TX).
Three µL of the substrate (mixture containing 50 mM Tris-acetate pH 7.6, 13.3 mM magnesium acetate, 0.01 mM D-luciferin, 0.01 mM ATP, 0.01% Tween, 0.05% BSA and distilled H2O) was dispensed into medium-binding white/solid 1,536-well plates (Greiner Bio-One North America Inc., Monroe, NC) using a Flying Reagent Dispenser, FRD (Aurora Discovery, Carlsbad, CA). Then 23 nL of the test compounds (into 5–48 columns), PTC-124 and/or DMSO (into 1–4 columns) were transferred to the assay plates using a Pintool station (Wako, San Diego, CA). The positive control plate format is, column-1: sixteen-concentration two-fold titration of PTC-124 from 0.035 nM to 1.15 µM with duplicate points; columns-2 & 3 for the top half portions: 0.58 and 1.15 µM PTC-124 respectively and DMSO in the rest. Compound addition was followed by the addition of 1 μl of 10 nM enzyme (mixture containing 50 mM Tris-acetate, 0.04 µM firefly-Luciferase and distilled H2O) by using an FRD to all the wells of assay plate except in the 4th column which received the buffer instead. After 5 min incubation at room temperate, luminescence intensity was measured by a Viewlux plate reader (Perkin Elmer, Waltham, MA). Data were expressed as relative luminescence units. Each test compound was measured at 15 concentrations ranging from 1.5 nM to 115 µM and in triplicate.
For primary data analysis, raw plate reads for each titration point were first normalized relative to DMSO-only wells that received firefly-Luciferase (basal, 0%) and PTC-124 control wells that received firefly-Luciferase (0.58 µM, −100%) and then corrected by applying a pattern correction algorithm using compound-free control plates (DMSO plates). Concentration-response titration points for each compound replicate were fitted to the Hill equation and concentrations of half-maximal inhibition activity (IC50) and maximal response (efficacy) values were calculated; the mean of the IC50s was used as the representative value. Concentration response curves were designated as class 1–4 based on the quality of the fit, the number of points above background, and the response efficacy, as previously described (summarized in Supporting Information Table S1)[18],[20].
(§2) Finally, for autofluorescence assays, to avoid indications of generalized cell stress without specific biomolecular interactions, only AC50 below the burst cutoff defined in[23] were considered. Indeed, activity above this limit may result from triggering cell stress pathways, chemical reactivity, physico-chemical disruption of proteins or membranes, or broad low-affinity non-covalent interactions and not from a specific technology interference reaction. This filter was applied to distinguish chemical-structure driven autofluorescence from the increase in signal that has been observed due to cell stress. The distribution of the curve classes for active chemicals is presented in Supporting Information Fig. S1.

HepG2 and HEK-293 [1] = test: Autofluorescence assays, all channels and culture conditions taken together; conditions: for autofluorescence activity specific to one cell culture: among chemicals active within wavelengths, Fig. 8
Procedure: as §1
(§3) HepG2 and HEK-293 cells were purchased from American Type Culture Collection (ATCC, Manassas, VA). HepG2 cells were cultured in Eagle’s Minimum Essential Medium (EMEM, ATCC) and HEK-293 cells in Dulbecco’s Modified Eagle’s Medium (DMEM, Life Technologies Corporation, Carlsbad, CA), and both supplemented with 10% Hyclone’s Fetal Bovine Serum (ThermoFisher Scientific, Waltham, MA), and 100 U/ml penicillin-100 µg/ml streptomycin (Life Technologies Corporation). Cells were cultured and maintained at 37 °C under a humidified atmosphere and 5% CO2.
(§4) HepG2 and HEK-293 cells were dispensed at 2,000/well in 5 µL of the culture medium into 1,536-well black/clear plates using a Multidrop™ Combi Reagent dispenser (ThermoFisher Scientific). In parallel, 5 µL/well of culture medium only were dispensed into 1,536-well black/clear plates. […] After respective incubation times, 23 nL of the compounds dissolved in DMSO, positive controls (fluorescein-green, triamterene-blue, and rose bengal-red) were transferred to the assay plates using Pintool station (Wako, San Diego, CA). […] The fluorescence intensity was measured using an Envision plate reader (Perkin Elmer, Waltham, MA) by using excitation/emission filters at 485/535 nm, 405/460 nm, and 540/590 nm for green, blue and red channels respectively. Data were expressed as relative fluorescence units. Each test compound was measured at 5 concentrations ranging from to 29 nM to 92 µM.
(§5) Analysis of compound concentration-response data was performed as previously described. Briefly, raw plate reads for each titration point were first normalized and then corrected by applying a pattern correction algorithm using compound-free control plates (DMSO plates)[22]. […] When normalizing to the positive control, the positive control response was set to 100% and negative control to 0% as follows: Activity(%)=([Vc−VDMSO]/[Vpos−VDMSO])×100, where Vc denotes the compound well values, Vpos denotes the median value of the positive control wells, and VDMSO denotes the median values of the DMSO-only wells. […] The following formula was used to normalize data to the negative control: Activity(%)=([Vc−VDMSO]/[VDMSO])×100 Concentration-response titration points for each compound were fitted to the Hill equation and concentrations of half-maximal activity (AC50) and maximal response (efficacy) values were calculated. Concentration response curves were designated as class 1–4 based on the quality of the fit, the number of points above background, and the response efficacy, as previously described (summarized in Supporting Information Table S1)[18],[20].
Finally, for autofluorescence assays, to avoid indications of generalized cell stress without specific biomolecular interactions, only AC50 below the burst cutoff defined in[23] were considered. Indeed, activity above this limit may result from triggering cell stress pathways, chemical reactivity, physico-chemical disruption of proteins or membranes, or broad low-affinity non-covalent interactions and not from a specific technology interference reaction. […]

HepG2 and HEK-293 [2] = test: Autofluorescence assays, green channel, the four conditions taken together; conditions: for autofluorescence activity: example structures of SOM clusters 209, 173, 117
Procedure: (§6) Three assay platforms were applied to analyze luciferase and fluorescence interference patterns using the Tox21 chemical screening library.
as §3
(§7) HepG2 and HEK-293 cells were dispensed at 2,000/well in 5 µL of the culture medium into 1,536-well black/clear plates using a Multidrop™ Combi Reagent dispenser (ThermoFisher Scientific). In parallel, 5 µL/well of culture medium only were dispensed into 1,536-well black/clear plates. […] After respective incubation times, 23 nL of the compounds dissolved in DMSO, positive controls (fluorescein-green, triamterene-blue, and rose bengal-red) were transferred to the assay plates using Pintool station (Wako, San Diego, CA). […] Data were expressed as relative fluorescence units.
as §5
Finally, for autofluorescence assays, to avoid indications of generalized cell stress without specific biomolecular interactions, only AC50 below the burst cutoff defined in[23] were considered. […]

HepG2 and HEK-293 [3] = test: Autofluorescence assays, red channel, the four conditions taken together
Procedure: as §1, §3, §4
as §5, with “Concentration response curves were designated as class 1–4 based on the quality of the fit, the number of points above background, and the response efficacy, as previously described (summarized in Supporting Information Table S1)[18],[20].” left out

HepG2 and HEK-293 [4] = test: Autofluorescence assays, blue channel, the four conditions taken together (HepG2/HEK-293, cell-based/cell-free); conditions: for autofluorescence activity specific to culture condition: Fig. 8A
Procedure: as §6, §3, §7, §5
as §2, with “stress.” for “stress. The distribution of the curve classes for active chemicals is presented in Supporting Information Fig. S1.”

HepG2 cells = test: Autofluorescence qHTS, HepG2 cell based, green channel; conditions: Homo sapiens, green spectrum, unit inferred
Procedure: as §1
(§8) HepG2 and HEK-293 cells were purchased from American Type Culture Collection (ATCC, Manassas, VA). […]
(§9) HepG2 and HEK-293 cells were dispensed at 2,000/well in 5 µL of the culture medium into 1,536-well black/clear plates using a Multidrop™ Combi Reagent dispenser (ThermoFisher Scientific). […] The fluorescence intensity was measured using an Envision plate reader (Perkin Elmer, Waltham, MA) by using excitation/emission filters at 485/535 nm, 405/460 nm, and 540/590 nm for green, blue and red channels respectively. Data were expressed as relative fluorescence units. Each test compound was measured at 5 concentrations ranging from to 29 nM to 92 µM.
(§10) Analysis of compound concentration-response data was performed as previously described. Briefly, raw plate reads for each titration point were first normalized and then corrected by applying a pattern correction algorithm using compound-free control plates (DMSO plates)[22]. […]

HEK-293 cells = test: Autofluorescence qHTS, HEK-293 cell based, green channel; conditions: Homo sapiens; Hek293 cell based, green spectrum; unit inferred
Procedure: as §1, §8, §9, §10

[5] = all four assay conditions, read-out: AC50s

T1 sequence (P08659 whole entry): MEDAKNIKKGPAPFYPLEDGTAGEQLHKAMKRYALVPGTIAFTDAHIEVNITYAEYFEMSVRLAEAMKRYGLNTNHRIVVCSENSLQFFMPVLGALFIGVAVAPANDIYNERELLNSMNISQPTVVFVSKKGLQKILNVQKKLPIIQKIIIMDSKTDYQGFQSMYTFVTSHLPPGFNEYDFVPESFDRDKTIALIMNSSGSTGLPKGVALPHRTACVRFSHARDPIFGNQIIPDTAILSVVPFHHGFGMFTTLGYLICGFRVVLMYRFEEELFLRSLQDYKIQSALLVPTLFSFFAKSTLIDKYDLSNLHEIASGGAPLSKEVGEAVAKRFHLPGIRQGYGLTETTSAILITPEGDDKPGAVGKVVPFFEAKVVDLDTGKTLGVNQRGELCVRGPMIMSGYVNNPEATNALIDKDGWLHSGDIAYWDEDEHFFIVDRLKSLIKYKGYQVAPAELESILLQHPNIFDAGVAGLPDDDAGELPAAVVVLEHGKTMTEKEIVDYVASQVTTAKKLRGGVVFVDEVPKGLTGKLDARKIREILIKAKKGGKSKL

Question: [O-][n+]1ccccc1S [13463-41-7] was tested. Which IC50 (firefly-Luciferase; after filtering, no unit printed in the sheet, read-out: Luc_IC50) did it give?
Answer: 481 nM

Question: How did the autofluorescence activity (HepG2 and HEK-293 [1]; green and red channel, SOM cluster 209) turn out when O=C1CCCO1 [Chemical 32] was run?
Answer: autofluorescent in both the green and red channel

Question: And the autofluorescence activity (HepG2 and HEK-293 [2])?
Answer: Active

Question: CC(CO)NC(=O)C1C=C2c3cccc4[nH]cc(c34)CC2N(C)C1 (centres unmarked) [Chemical 36] was tested. Which autofluorescence activity (HepG2 and HEK-293 [2]) did it give?
Answer: actives

Question: O=C(O)CCCc1ccc(N(CCCl)CCCl)cc1 [Chemical 44] was tested. Which autofluorescence activity (HepG2 and HEK-293 [3]; example structures of SOM clusters 194 (219 in Fig. 6) and 143) did it give?
Answer: actives

Question: CCCNC(=O)NS(=O)(=O)c1ccc(Cl)cc1 [Chemical 49] was tested. Which “autofluorescence activity specific to one cell culture” value (HepG2 and HEK-293 [1]) did it give?
Answer: active only on HEK-293

Question: Which “autofluorescence activity specific to culture condition” value (HepG2 and HEK-293 [4]) does the source give for OC[C@H]1O[C@@H]2O[C@H]3[C@H](O)[C@@H](O)[C@@H](O[C@H]4[C@H](O)[C@@H](O)[C@@H](O[C@H]5[C@H](O)[C@@H](O)[C@@H](O[C@H]6[C@H](O)[C@@H](O)[C@@H](O[C@H]7[C@H](O)[C@@H](O)[C@@H](O[C@H]8[C@H](O)[C@@H](O)[C@@H](O[C@H]1[C@H](O)[C@H]2O)O[C@@H]8CO)O[C@@H]7CO)O[C@@H]6CO)O[C@@H]5CO)O[C@@H]4CO)O[C@@H]3CO [Chemical 58] here?
Answer: active only in the HEK-293 cell-free condition

Question: How did the “autofluorescence activity specific to culture condition” value (HepG2 and HEK-293 [4]) turn out when O=C1CCCCC1 [Chemical 59] was run?
Answer: active only in the HEK-293 cell-free condition

Question: How did the “autofluorescence activity specific to one cell culture” value (HepG2 and HEK-293 [1]) turn out when CN(C)N=Nc1nc[nH]c1C(N)=O [Chemical 63] was run?
Answer: active specifically on the HepG2 culture

Question: For Nc1ccc(N)cc1 [Chemical 77], which “autofluorescence activity specific to one cell culture” value (HepG2 and HEK-293 [1]) is on record?
Answer: active only on HEK-293

Question: How did the “autofluorescence activity specific to one cell culture” value (HepG2 and HEK-293 [1]) turn out when Nc1ccc(N)c2ccccc12 [Chemical 79] was run?
Answer: active specifically on the HepG2 culture

Question: How did the response curve class (firefly-Luciferase) turn out when O=C(O)c1cccc(-c2noc(-c3ccccc3F)n2)c1 [PTC-124, Ataluren] was run?
Answer: −1.1

Question: What about the IC50 (firefly-Luciferase; estimated, based on triplicate measurements, read-out: IC50) of the same compound?
Answer: < 20 nM

Question: What about the AC50 (firefly-Luciferase; set1) of the same compound?
Answer: 0.00871 µM

Question: What about the AC50 (firefly-Luciferase; set2) of the same compound?
Answer: 0.0195 µM

Question: And the AC50 (firefly-Luciferase; set3)?
Answer: 0.0195 µM

Question: Which results are given for O=C1OC2(c3ccc(O)cc3Oc3cc(O)ccc32)c2ccccc21 [fluorescein]?
Answer: AC50 (HepG2 cells): 3160 nM; AC50 (HEK-293 cells): 2820 nM; curve class (HepG2 and HEK-293 [2]; all four assay conditions): 1.1; EC50 (HepG2 and HEK-293 [2]; [5]): < 4000 nM

Question: Which results are given for rose bengal?
Answer: response curve class (HepG2 and HEK-293 [3]; all four assay conditions): 2.1; EC50 (HepG2 and HEK-293 [3]; [5]): < 12000 nM; efficacy (HepG2 and HEK-293 [3]; incomplete response): > 80%

Question: Which results are given for triamterene [Tiramterene]?
Answer: response curve class (HepG2 and HEK-293 [4]; all four assay conditions): 2.1; EC50 (HepG2 and HEK-293 [4]; [5]): < 40000 nM; efficacy (HepG2 and HEK-293 [4]; incomplete response): > 80%
